Reference: PubChem BioAssay AID256 (DTP/NCI, 2004)
Where “and” joins values, the source holds several entries; their conditions need not be identical. Identical values can stand only once. Toxic doses and inconclusive results are not listed.

Test system: CD2F1 mice, L1210 leukemia ip, survival T/C
Assay: NCI In Vivo Anticancer Drug Screen. Data for tumor model L1210 Leukemia (intraperitoneal) in CD2F1 (CDF1) mice
Settings: higher = longer survival
Procedure, shortened: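 Mice carrying a transplanted tumor received test compound or vehicle alone. The value is the measurement in the treated group divided by that in the vehicle-treated control group.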

[1] = endpoint: mean survival time, dose: 100.0 mg/kg/injection, schedule: Q04DX003 (ip), vehicle: saline with Tween-80
[2] = endpoint: mean survival time, dose: 200.0 mg/kg/injection, schedule: Q04DX003 (ip), vehicle: saline with Tween-80
[3] = endpoint: mean survival time, dose: 400.0 mg/kg/injection, schedule: Q04DX003 (ip), vehicle: saline with Tween-80
[4] = endpoint: mean survival time, dose: 100.0 mg/kg/injection, schedule: Q01DX009 (ip), vehicle: saline with Tween-80
[5] = endpoint: mean survival time, dose: 200.0 mg/kg/injection, schedule: Q01DX009 (ip), vehicle: saline with Tween-80

## CC1CCC2NCCCC2C1 (stereo not drawn)
endpoint: mean survival time, dose: 5.0 mg/kg/injection, schedule: Q04DX002 (ip), vehicle: saline
  T/C: 98 % of control
endpoint: mean survival time, dose: 10.0 mg/kg/injection, schedule: Q04DX002 (ip), vehicle: saline
  T/C: 95 % of control
endpoint: mean survival time, dose: 20.0 mg/kg/injection, schedule: Q04DX002 (ip), vehicle: saline
  T/C: 98 % of control

## Cc1ccc(S(=O)(=O)O)c2c([N+](=O)[O-])cccc12
[1]
  T/C: 100 % of control
[2]
  T/C: 104 % of control
[3]
  T/C: 96 % of control

## COC(=O)C1C2CCC(COC(C)=O)(O2)C1C(=O)O (stereo not drawn)
endpoint: mean survival time, dose: 100.0 mg/kg/injection, schedule: Q01DX001 (ip), vehicle: saline with Tween-80
  T/C: 94 % of control
endpoint: mean survival time, dose: 100.0 mg/kg/injection, schedule: Q01DX009 (ip), vehicle: saline
  T/C: 96 % of control
endpoint: mean survival time, dose: 200.0 mg/kg/injection, schedule: Q01DX001 (ip), vehicle: saline with Tween-80
  T/C: 97 % of control
endpoint: mean survival time, dose: 200.0 mg/kg/injection, schedule: Q01DX009 (ip), vehicle: saline
  T/C: 98 % of control
endpoint: mean survival time, dose: 400.0 mg/kg/injection, schedule: Q01DX001 (ip), vehicle: saline with Tween-80
  T/C: 88 % of control

## COc1cc(OC)c(C(=O)CCl)c(O)c1Cl
[4]
  T/C: 93 % of control

## CNC(=O)c1nc2c(nc1NC)n(C)c(=O)n2C
endpoint: mean survival time, dose: 12.5 mg/kg/injection, schedule: Q01DX005 (ip), vehicle: other
  T/C: 93 % of control
endpoint: mean survival time, dose: 25.0 mg/kg/injection, schedule: Q01DX005 (ip), vehicle: other
  T/C: 90 % of control
endpoint: mean survival time, dose: 50.0 mg/kg/injection, schedule: Q01DX005 (ip), vehicle: other
  T/C: 95 % of control

## O=C(CNC(=O)Nc1cccc([N+](=O)[O-])c1)N/N=C/c1c(O)ccc2ccccc12
endpoint: mean survival time, dose: 50.0 mg/kg/injection, schedule: Q01DX009 (ip), vehicle: saline with Tween-80
  T/C: 88 % of control
[4]
  T/C: 92 % of control
[5]
  T/C: 95 % of control

## CCC1(OC(=O)CNC)C(=O)OCc2c1cc1n(c2=O)Cc2cc3ccccc3nc2-1 (stereo not drawn)
endpoint: median survival time, dose: 7.5 mg/kg/injection, schedule: Q04DX002 (ip), vehicle: saline
  T/C: 124 % of control
endpoint: median survival time, dose: 15.0 mg/kg/injection, schedule: Q04DX002 (ip), vehicle: saline
  T/C: 160 % of control and 162 % of control
endpoint: median survival time, dose: 30.0 mg/kg/injection, schedule: Q04DX002 (ip), vehicle: saline
  T/C: 239 % of control
endpoint: median survival time, dose: 60.0 mg/kg/injection, schedule: Q04DX002 (ip), vehicle: saline
  T/C: 108 % of control

## COc1ccc(CC2C(=O)NC(C)C(=O)N(C)C3C(=O)N(C)C(Cc4ccc(O)c(c4)Oc4ccc(cc4)C3O)C(=O)NC(C)C(=O)NC(C)C(=O)N2C)cc1 (stereo not drawn)
endpoint: mean survival time, dose: 0.06 mg/kg/injection, schedule: Q01DX009 (ip), vehicle: saline
  T/C: 106 % of control
endpoint: mean survival time, dose: 0.12 mg/kg/injection, schedule: Q01DX009 (ip), vehicle: saline
  T/C: 113 % of control and 102 % of control and 104 % of control
endpoint: mean survival time, dose: 0.25 mg/kg/injection, schedule: Q01DX009 (ip), vehicle: Klucel (hydroxypropylcellulose) (HPC)
  T/C: 113 % of control and 110 % of control
endpoint: mean survival time, dose: 0.25 mg/kg/injection, schedule: Q01DX009 (ip), vehicle: saline
  T/C: 114 % of control and 97 % of control and 108 % of control
endpoint: mean survival time, dose: 0.5 mg/kg/injection, schedule: Q01DX009 (ip), vehicle: Klucel (hydroxypropylcellulose) (HPC)
  T/C: 113 % of control and 103 % of control
endpoint: mean survival time, dose: 0.5 mg/kg/injection, schedule: Q01DX009 (ip), vehicle: saline
  T/C: 104 % of control and 109 % of control
endpoint: mean survival time, dose: 1.0 mg/kg/injection, schedule: Q01DX009 (ip), vehicle: Klucel (hydroxypropylcellulose) (HPC)
  T/C: 113 % of control and 110 % of control
endpoint: mean survival time, dose: 1.0 mg/kg/injection, schedule: Q01DX009 (ip), vehicle: saline
  T/C: 113 % of control and 114 % of control and 110 % of control
endpoint: mean survival time, dose: 2.0 mg/kg/injection, schedule: Q01DX009 (ip), vehicle: Klucel (hydroxypropylcellulose) (HPC)
  T/C: 113 % of control and 111 % of control
endpoint: mean survival time, dose: 2.0 mg/kg/injection, schedule: Q01DX009 (ip), vehicle: saline
  T/C: 116 % of control and 123 % of control
endpoint: mean survival time, dose: 4.0 mg/kg/injection, schedule: Q01DX009 (ip), vehicle: Klucel (hydroxypropylcellulose) (HPC)
  T/C: 119 % of control
endpoint: mean survival time, dose: 4.0 mg/kg/injection, schedule: Q01DX009 (ip), vehicle: saline
  T/C: 88 % of control and 96 % of control

## O=C1OC(=O)N2N=CC=CC12 (stereo not drawn)
endpoint: mean survival time, dose: 100.0 mg/kg/injection, schedule: Q01DX001 (ip), vehicle: saline sonified
  T/C: 96 % of control
endpoint: mean survival time, dose: 200.0 mg/kg/injection, schedule: Q01DX001 (ip), vehicle: saline sonified
  T/C: 98 % of control
endpoint: mean survival time, dose: 400.0 mg/kg/injection, schedule: Q01DX001 (ip), vehicle: saline sonified
  T/C: 94 % of control

## CCCCCCCCCCCCCCCCOc1ccccc1CNc1cc(Cl)ccc1Cl
[4]
  T/C: 102 % of control
[1]
  T/C: 95 % of control
[5]
  T/C: 96 % of control
[2]
  T/C: 95 % of control
endpoint: mean survival time, dose: 400.0 mg/kg/injection, schedule: Q01DX009 (ip), vehicle: saline with Tween-80
  T/C: 93 % of control
[3]
  T/C: 89 % of control
